From patent publication EP0429333B1, “Process for producing oxazopyrroloquinolines, novel oxazopyrroloquinolines, and use of oxazopyrroloquinolines” (priority 1989, dated 1991)

Experiments:
[1] = Solubility of the isolated compound, described in words; type: physicochemical; settings: for solubility in water / solubility under neutral and alkaline conditions: water
[2] = target: aldose reductase of kidney (Canis lupus familiaris, UniProt A0A8I3P2L6); experiment: Inhibitory effect on aldose reductase of kidney; type: biochemical, dog; settings: read-out: Degree of inhibition for aldose reductase (%); for inhibition at 1 µM: concentration 1x10^-6 M; for inhibition at 0.2 µM: concentration 2x10^-7 M; for inhibition at 0.5 µM: concentration 5x10^-7 M; for inhibition at 10 µM: concentration 1x10^-5 M; for inhibition at 2 µM: concentration 2x10^-6 M; for inhibition at 5 µM: concentration 5x10^-6 M
Procedure: Medulla of kidney of dog was homogenized with 10mM phosphoric acid buffer (pH 7.0) containing 2mM dithiothreitol in an amount of four times the volume of kidney medulla and subjected to centrifugation. The supernatant liquid was purified by affinity chromatography, gel filtration and chromatofocusing to obtain electrophoretically homogeneous aldose reductase. 0.05 ml of 3mM NADPH, 0.1 ml of DL-glyceraldehyde and 0.04 ml of distilled water were added to 0.8 ml of 0.1M phosphoric acid buffer (pH 6.2) and left to stand at 25°C for 3 minutes. Then, 0.01 ml of the aldose reductase solution was added thereto to start reaction and decreasing of absorbance of 340 nm was measured at 25°C with time. Amount of enzyme which consumes 1 µmole of NADPH for 1 minute was taken as 1 unit.

[3] = target: T1, aldose reductase of rabbit lens (Oryctolagus cuniculus, UniProt P15122); experiment: Inhibitory effect on aldose reductase of lens; type: biochemical; settings: read-out: Degree of inhibition for aldose reductase (%); for inhibition at 1 µM: concentration 1x10^-6 M; for inhibition at 2 µM: concentration 2x10^-6 M; for inhibition at 0.5 µM: concentration 5x10^-7 M
T1 construct: to obtain electrophoretically homogeneous aldose reductase; from tissue; host or cells: rabbit lens
Procedure: 0.05 ml of 3mM NADPH, 0.1 ml of DL-glyceraldehyde and 0.04 ml of distilled water were added to 0.8 ml of 0.1M phosphoric acid buffer (pH 6.2) and left to stand at 25°C for 3 minutes. Then, 0.01 ml of the aldose reductase solution was added thereto to start reaction and decreasing of absorbance of 340 nm was measured at 25°C with time. Amount of enzyme which consumes 1 µmole of NADPH for 1 minute was taken as 1 unit.
Enzyme activity was measured under the same conditions as in the above measurement of aldose reductase activity except that 0.04 ml of aqueous solution of inhibitory substance in various concentrations was added in place of 0.04 ml of distilled water and degree of inhibition was calculated from comparison of the enzyme activity with the enzyme activity obtained in the absence of inhibitor. (1) OPQ, (2) methyl OPQ, (3) 1-methylpropyl OPQ, (4) 2-methylpropyl OPQ, (5) 2-carbamoylethyl OPQ, (6) hydroxymethyl OPQ, (7) 2-methylthioethyl OPQ, (8) 2-carboxyethyl OPQ, (9) 4-hydroxybenzyl OPQ, (10) 1-methylethyl OPQ, and (11) benzyl OPQ were used as inhibition substances and (12) PQQ was used as control.
Lens of rabbit was homogenized with 10mM phosphoric acid buffer (pH 7.0) containing 2mM dithiothreitol in an amount of two times the volume of the lens and subjected to centrifugation. The supernatant liquid was purified by affinity chromatography, gel filtration and chromatofocusing to obtain electrophoretically homogeneous aldose reductase. Using (1) OPQ, (2) 1-methylpropyl OPQ, (3) 2-methylpropyl OPQ, (4) hydroxymethyl OPQ, and (5) 1-methylethyl OPQ as inhibition substances, degree of inhibition of these substances for aldose reductase of rabbit lens was examined in the same manner in Example 32.

peritoneal macrophage = experiment: Test on macrophage-chemotaxis after intraperitoneal administration; type: in vivo, C3H/He mice; settings: for (2) Chemotaxis factor was present: 50 % zymosan treated serum, no administration 40; for (2) - (1) Chemotaxied macrophage: no administration 29; for Relative activity of group (%): no administration = 100; for (1) Chemotaxis factor was not present: total number of chemotaxied macrophages at 3 points, no administration 11
Procedure: Thirtytwo C3H/He mice (male, 7 weeks old, average body weight 20 g, supplied by Japan Charles River Co.) were divided into 4 groups (A - D) of 8 mice each.
A solution of OPQ in physiological saline of pH 7.0 was intraperitoneally administered to each mouse 7 times, namely, on the 1st day, 2nd day, 3rd day, 4th day, 5th day, 6th day and 7th day. Dosage for one administration per one mouse was as follows: That is, 0.2 ml of the solution containing 0.2 mg/ml of OPQ for group B, 0.2 ml of the solution containing 0.5 mg/ml of OPQ for group C, 0.2 ml of the solution containing 1.0 mg/ml of OPQ for group D and 0.2 ml of physiological saline for group A.
On the 8th day from starting of the experiment, the mice were anesthetized with ether and blood was drawn from carotid artery and 5 ml of cold Hanks solution was intraperitoneally injected and exudate cells for the abdominal cavity were collected. Exudate cells for the abdominal cavity of respective groups were gathered, washed three times with cold Hanks solution and suspended in RPMI medium at 5 x 10^5 cells/ml and macrophage-chemotaxis was measured. 50 % zymosan treated serum was used as chemotaxis factor and examination was conducted at three points for each sample. Number of chemotaxied macrophage was measured on microscope and 13 visual fields was examined for one point and the results are shown in Table 2. The value in the table is a total number of chemotaxied macrophages at 3 points for each sample. Preparation of Hanks solution and RPMI medium will be explained below.
Test on macrophage-chemotaxis was conducted in the same manner as in Example 36 except that hydroxymethyl OPQ was intraperitoneally administered to each mouce 3 times of the 1st day, the 2nd day and the 3rd day in the following dosage for one administration per one mouse: 0.2 ml of hydroxymethyl OPQ solution containing 0.5 mg/ml of hydroxymethyl OPQ for group B, 0.2 ml of the solution containing 1.0 mg/ml of hydroxymethyl OPQ for group C, and 0.2 ml of the solution containing 1.5 mg/ml of hydroxymethyl OPQ for group D and exudate cells for the abdominal cavity were collected on the 4th day from starting of experiment.
In Examples 36 - 40, macrophage activity was examined according to chemotaxis of peritoneal macrophage (literature 1) and activity of T cell and that of B cell were examined according to blast transformation reaction using concanavalin A and lipopolysaccharide, (LPS) as mitogen (literature 2). Literature 1: "Function of Macrophage and Method of Measurement of Function", pages 61-65 1985), edited by Educational Committee of Japan Bacteriological Society and published from Saikon Shuppan Co.) Literature 2: "New Method of Searching of Function of Lymphocytes", pages 350-355 (1987) edited by Junichi Yada and Michio Fujiwara and published from Chugai Igaku Co.

kidney = experiment: Toxicity to kidney determined by blood examination; type: in vivo, mice; settings: conclusion from the blood examinations (a) and (b)
Procedure: After one day from administration, the mice were fasted (only water was given) and after lapse of 18 hours, blood was collected and serum was obtained therefrom. Glucose, urea nitrogen and creatinine in the serum were examined using FUJI Dry Chemslide (manufactured by Fuji Photo Film Co., Ltd.). […]
Thereafter, the mice were fasted (with giving only water) and after lapse of 18 hours, blood was collected and serum was obtained therefrom. Contents of glucose, urea nitrogen and creatinine in serum were obtained using FUJI Dry Chemslide. The results were shown by average value for eight mice.

[4] = 5 mg/kg mouse x 3 days intraperitoneally
[5] = 10 mg/kg mouse x 3 days intraperitoneally
[6] = 15 mg/kg mouse x 3 days intraperitoneally

Structure (SMILES) | solubility in acetone and diethyl ether [1] | solubility in lower alcohols [1] | solubility in water [1] | solubility under neutral and alkaline conditions [1] | inhibition at 1 µM [2] | inhibition at 0.2 µM [2] | inhibition at 0.5 µM [2] | inhibition at 10 µM [2] | inhibition at 2 µM [2] | inhibition at 5 µM [2] | inhibition at 1 µM [3] | inhibition at 0.5 µM [3] | also measured
Cc1nc2c3nc(C(=O)O)cc(C(=O)O)c3c3[nH]c(C(=O)O)cc3c2o1 [Methyl OPQ, 5-Methyl-2,8,10-tricarboxy-1H-oxazo[5,4-h]-pyrrolo-[2,3-f]quinoline] | did not dissolve | dissolved | easily soluble | very easily soluble | 92.1% | 31.4% | 73.6% |  |  |  |  |  | inhibition at 0.1 µM ([2]; concentration 1x10^-7 M): 25%
O=C(O)CCc1nc2c3nc(C(=O)O)cc(C(=O)O)c3c3[nH]c(C(=O)O)cc3c2o1 [2-Carboxyethyl OPQ, 5-(2-Carboxyethyl)-2,8,10-tricarboxy-1H-oxazo[5,4-h]-pyrrolo[2,3-f]quinoline] | did not dissolve | dissolved | easily soluble | very easily soluble | 48% |  | 22.5% | 58.5% | 49.9% | 55% |  |  | 
O=C(O)c1cc(C(=O)O)c2c(n1)c1nc(Cc3ccc(O)cc3)oc1c1cc(C(=O)O)[nH]c12 [4-Hydroxybenzyl OPQ, 5-(4-Hydroxybenzyl)-2,8,10-tricarboxy-1H-oxazo[5,4-h]-pyrrolo[2,3-f]quinoline] | did not dissolve | dissolved | easily soluble | especially soluble | 38.6% |  |  | 89% | 49.4% | 71.3% |  |  | 
CC(C)c1nc2c3nc(C(=O)O)cc(C(=O)O)c3c3[nH]c(C(=O)O)cc3c2o1 [1-Methylethyl OPQ, 5-(1-Methylethyl)-2,8,10-tricarboxy-1H-oxazo[5,4-h]-pyrrolo[2,3-f]quinoline] | did not dissolve | dissolved | easily soluble | very easily soluble | 30.5% |  |  |  | 48.1% | 68.2% | 43.3% | 33% | inhibition at 2 µM [3]: 51.9%; inhibition at 5 µM ([3]; concentration 5x10^-6 M): 68.4%
O=C(O)c1cc(C(=O)O)c2c(n1)c1nc(CO)oc1c1cc(C(=O)O)[nH]c12 [Hydroxymethyl OPQ, 5-Hydroxymethyl-2,8,10-tricarboxy-1H-oxazo[5,4-h]-pyrrolo[2,3-f]-quinoline] | did not dissolve | dissolved | easily soluble | very easily soluble | 57.9% | 26.7% | 41.1% |  | 68.2% |  | 50.1% | 31.9% | inhibition at 2 µM [3]: 60.4%; (2) Chemotaxis factor was present (peritoneal macrophage; [4]): 61; (2) - (1) Chemotaxied macrophage (peritoneal macrophage; [4]): 44; Relative activity of group (%) (peritoneal macrophage; [4]): 152%; (1) Chemotaxis factor was not present (peritoneal macrophage; [4]): 17; (2) Chemotaxis factor was present (peritoneal macrophage; [5]): 66; (2) - (1) Chemotaxied macrophage (peritoneal macrophage; [5]): 56; Relative activity of group (%) (peritoneal macrophage; [5]): 193%; (1) Chemotaxis factor was not present (peritoneal macrophage; [5]): 10; (2) Chemotaxis factor was present (peritoneal macrophage; [6]): 48; (2) - (1) Chemotaxied macrophage (peritoneal macrophage; [6]): 39; Relative activity of group (%) (peritoneal macrophage; [6]): 134%; (1) Chemotaxis factor was not present (peritoneal macrophage; [6]): 9
O=C(O)c1cc(C(=O)O)c2c(n1)C(=O)C(=O)c1cc(C(=O)O)[nH]c1-2 [PQQ, pyrroloquinolinequinone, reference compound] |  |  |  |  |  |  |  | 64.4% | 17.3% | 42.8% |  |  | toxicity to kidney (kidney): showed toxicity to kidney
CC(C)Cc1nc2c3nc(C(=O)O)cc(C(=O)O)c3c3[nH]c(C(=O)O)cc3c2o1 [2-Methylpropyl OPQ, 5-(2-Methylpropyl)-2,8,10-tricarboxy-1H-oxazo[5,4-h]-pyrrolo[2,3-f]quinoline] | did not dissolve | dissolved | easily soluble | very easily soluble | 63.1% | 30.2% | 44.1% |  |  |  | 69.8% | 57.2% | inhibition at 0.1 µM ([3]; concentration 1x10^-7 M): 27%; inhibition at 0.2 µM ([3]; concentration 2x10^-7 M): 34.9%
NC(=O)CCc1nc2c3nc(C(=O)O)cc(C(=O)O)c3c3[nH]c(C(=O)O)cc3c2o1 [2-Carbamoylethyl OPQ, 5-(2-Carbamoylethyl)-2,8,10-tricarboxy-1H-oxazo[5,4-h]-pyrrolo[2,3-f]quinoline] | did not dissolve | dissolved | easily soluble | very easily soluble | 59.6% |  | 44.7% |  | 75.7% | 89.1% |  |  | 
